Measurements: patent US9695155B2, “Herbicidal substituted pyrimidinyloxy benzene compounds” (E. I. DU PONT DE NEMOURS AND COMPANY, priority 2013, dated 2017)

Experiments:
spring barley = assay: Test D preemergence; assay type: in vivo, Hordeum vulgare
Outline: (§1)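 Visual rating vs untreated controls, 0 = no effect, 100 = complete control, taken 7–21 d after treatment. Pre: silt loam soil. Post: potting medium, plants 2–18 cm, 1–4 leaf. Formulation: non-phytotoxic solvent mix + surfactant.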

winter barley = assay: Test D preemergence; assay type: in vivo, Hordeum vulgare
Outline: as §1

Italian ryegrass = assay: Test D preemergence; assay type: in vivo, Lolium multiflorum
Outline: as §1

field violet = assay: Test D postemergence; assay type: in vivo, Viola arvensis
Outline: as §1

pigweed = assay: Test D postemergence; assay type: in vivo, Amaranthus retroflexus
Outline: as §1

deadnettle = assay: Test D preemergence; assay type: in vivo, Lamium amplexicaule
Outline: as §1

canarygrass = assay: Test D preemergence; assay type: in vivo, Phalaris minor
Outline: as §1

bromegrass, downy = assay: Test D preemergence; assay type: in vivo, Bromus tectorum
Outline: as §1

chickweed = assay: Test D postemergence; assay type: in vivo, Stellaria media
Outline: as §1

[1] = 31 g ai/ha, scale 0 (no effect) to 100 (complete control)
[2] = 62 g ai/ha, scale 0 to 100 (0 no effect, 100 complete control)
[3] = 125 g ai/ha, scale 0 to 100 (0 no effect, 100 complete control)
[4] = 250 g ai/ha, scale 0 to 100 (0 no effect, 100 complete control)

**Q.** Which plant injury at 16 g/ha (spring barley; Hordeum vulgare, pre-emergence, 16 g ai/ha, scale 0 (no effect) to 100 (complete control), read-out: Plant response rating, Barley, Spring) does the source give for FC(F)(F)c1cn(-c2ccccc2Oc2ncc(Cl)cn2)nn1 [Compound 166, 5-chloro-2-[2-[4-(trifluoromethyl)-1H-1,2,3-triazol-1-yl]phenoxy]pyrimidine] here?
**A.** 0%

**Q.** And the plant injury at 31 g/ha (spring barley; Hordeum vulgare, pre-emergence, 31 g ai/ha, scale 0-100, read-out: Plant response rating, Barley, Spring)?
**A.** 0%

**Q.** What about the plant injury at 62 g/ha (spring barley; Hordeum vulgare, pre-emergence, 62 g ai/ha, scale 0-100, read-out: Plant response rating, Barley, Spring) of the same molecule?
**A.** 30%

**Q.** And the plant injury at 125 g/ha (spring barley; Hordeum vulgare, pre-emergence, 125 g ai/ha, scale 0-100, read-out: Plant response rating, Barley, Spring)?
**A.** 60%

**Q.** And the plant injury at 16 g/ha (winter barley; Hordeum vulgare, pre-emergence, 16 g ai/ha, scale 0 (no effect) to 100 (complete control), read-out: Plant response rating, Barley, Winter)?
**A.** 0%

**Q.** And the plant injury at 31 g/ha (winter barley; Hordeum vulgare, pre-emergence, 31 g ai/ha, scale 0-100, read-out: Plant response rating, Barley, Winter)?
**A.** 0%

**Q.** And the plant injury at 62 g/ha (winter barley; Hordeum vulgare, pre-emergence, 62 g ai/ha, scale 0-100, read-out: Plant response rating, Barley, Winter)?
**A.** 35%

**Q.** What about the plant injury at 125 g/ha (winter barley; Hordeum vulgare, pre-emergence, 125 g ai/ha, scale 0-100, read-out: Plant response rating, Barley, Winter) of the same molecule?
**A.** 50%

**Q.** What about the pest or weed control at 16 g/ha (Italian ryegrass; Lolium multiflorum, pre-emergence, 16 g ai/ha, scale 0 (no effect) to 100 (complete control), read-out: Plant response rating, Ryegrass, Italian) of the same molecule?
**A.** 20%

**Q.** What about the pest or weed control at 31 g/ha (Italian ryegrass; Lolium multiflorum, pre-emergence, 31 g ai/ha, scale 0 (no effect) to 100 (complete control), read-out: Plant response rating, Ryegrass, Italian) of the same molecule?
**A.** 40%

**Q.** What about the pest or weed control at 62 g/ha (Italian ryegrass; Lolium multiflorum, pre-emergence, 62 g ai/ha, scale 0-100, read-out: Plant response rating, Ryegrass, Italian) of the same molecule?
**A.** 60%

**Q.** What about the pest or weed control at 125 g/ha (Italian ryegrass; Lolium multiflorum, pre-emergence, 125 g ai/ha, scale 0-100, read-out: Plant response rating, Ryegrass, Italian) of the same molecule?
**A.** 85%

**Q.** And the pest or weed control at 16 g/ha (field violet; Viola arvensis, post-emergence, 16 g ai/ha, scale 0-100, read-out: Plant response rating, Field Violet)?
**A.** 60%

**Q.** What about the pest or weed control at 31 g/ha (field violet; Viola arvensis, post-emergence, 31 g ai/ha, scale 0 to 100 (0 no effect, 100 complete control), read-out: Plant response rating, Field Violet) of the same molecule?
**A.** 65%

**Q.** And the pest or weed control at 62 g/ha (field violet; Viola arvensis, post-emergence, 62 g ai/ha, scale 0 to 100 (0 no effect, 100 complete control), read-out: Plant response rating, Field Violet)?
**A.** 70%

**Q.** And the pest or weed control at 125 g/ha (field violet; Viola arvensis, post-emergence, 125 g ai/ha, scale 0 to 100 (0 no effect, 100 complete control), read-out: Plant response rating, Field Violet)?
**A.** 85%

**Q.** And the pest or weed control at 16 g/ha (pigweed; Amaranthus retroflexus, post-emergence, 16 g ai/ha, scale 0-100, read-out: Plant response rating, Pigweed)?
**A.** 80%

**Q.** And the pest or weed control at 31 g/ha (pigweed; Amaranthus retroflexus, post-emergence, 31 g ai/ha, scale 0 to 100 (0 no effect, 100 complete control), read-out: Plant response rating, Pigweed)?
**A.** 85%

**Q.** And the pest or weed control at 62 g/ha (pigweed; Amaranthus retroflexus, post-emergence, 62 g ai/ha, scale 0 to 100 (0 no effect, 100 complete control), read-out: Plant response rating, Pigweed)?
**A.** 95%

**Q.** What about the pest or weed control at 125 g/ha (pigweed; Amaranthus retroflexus, post-emergence, 125 g ai/ha, scale 0 to 100 (0 no effect, 100 complete control), read-out: Plant response rating, Pigweed) of the same molecule?
**A.** 95%

**Q.** And the pest or weed control at 16 g/ha (deadnettle; Lamium amplexicaule, pre-emergence, 16 g ai/ha, scale 0 (no effect) to 100 (complete control), read-out: Plant response rating, Deadnettle)?
**A.** 70%

**Q.** What about the pest or weed control at 31 g/ha (deadnettle; Lamium amplexicaule, pre-emergence, 31 g ai/ha, scale 0-100, read-out: Plant response rating, Deadnettle) of the same molecule?
**A.** 75%

**Q.** And the pest or weed control at 62 g/ha (deadnettle; Lamium amplexicaule, pre-emergence, 62 g ai/ha, scale 0-100, read-out: Plant response rating, Deadnettle)?
**A.** 100%

**Q.** What about the pest or weed control at 125 g/ha (deadnettle; Lamium amplexicaule, pre-emergence, 125 g ai/ha, scale 0-100, read-out: Plant response rating, Deadnettle) of the same molecule?
**A.** 100%

**Q.** What about the pest or weed control at 16 g/ha (canarygrass; Phalaris minor, pre-emergence, 16 g ai/ha, scale 0 (no effect) to 100 (complete control), read-out: Plant response rating, Canarygrass) of the same molecule?
**A.** 30%

**Q.** And the pest or weed control at 31 g/ha (canarygrass; Phalaris minor, pre-emergence, 31 g ai/ha, scale 0-100, read-out: Plant response rating, Canarygrass)?
**A.** 50%

**Q.** And the pest or weed control at 62 g/ha (canarygrass; Phalaris minor, pre-emergence, 62 g ai/ha, scale 0-100, read-out: Plant response rating, Canarygrass)?
**A.** 70%

**Q.** And the pest or weed control at 125 g/ha (canarygrass; Phalaris minor, pre-emergence, 125 g ai/ha, scale 0-100, read-out: Plant response rating, Canarygrass)?
**A.** 100%

**Q.** And the pest or weed control at 16 g/ha (bromegrass, downy; Bromus tectorum, pre-emergence, 16 g ai/ha, scale 0 (no effect) to 100 (complete control), read-out: Plant response rating, Bromegrass, Downy)?
**A.** 5%

**Q.** What about the pest or weed control at 31 g/ha (bromegrass, downy; Bromus tectorum, pre-emergence, 31 g ai/ha, scale 0-100, read-out: Plant response rating, Bromegrass, Downy) of the same molecule?
**A.** 5%

**Q.** What about the pest or weed control at 62 g/ha (bromegrass, downy; Bromus tectorum, pre-emergence, 62 g ai/ha, scale 0-100, read-out: Plant response rating, Bromegrass, Downy) of the same molecule?
**A.** 25%

**Q.** And the pest or weed control at 125 g/ha (bromegrass, downy; Bromus tectorum, pre-emergence, 125 g ai/ha, scale 0-100, read-out: Plant response rating, Bromegrass, Downy)?
**A.** 50%

**Q.** And the pest or weed control at 16 g/ha (chickweed; Stellaria media, post-emergence, 16 g ai/ha, scale 0-100, read-out: Plant response rating, Chickweed)?
**A.** 55%

**Q.** What about the pest or weed control at 31 g/ha (chickweed; Stellaria media, post-emergence, 31 g ai/ha, scale 0 to 100 (0 no effect, 100 complete control), read-out: Plant response rating, Chickweed) of the same molecule?
**A.** 65%

**Q.** What about the pest or weed control at 62 g/ha (chickweed; Stellaria media, post-emergence, 62 g ai/ha, scale 0 to 100 (0 no effect, 100 complete control), read-out: Plant response rating, Chickweed) of the same molecule?
**A.** 80%

**Q.** And the pest or weed control at 125 g/ha (chickweed; Stellaria media, post-emergence, 125 g ai/ha, scale 0 to 100 (0 no effect, 100 complete control), read-out: Plant response rating, Chickweed)?
**A.** 90%

**Q.** What does the source list for N#Cc1cccc(Oc2ncc(Cl)cn2)c1-n1cc(-n2ccc(C(F)(F)F)n2)cn1 [Compound 284]?
**A.** Plant response rating, Barley, Spring (spring barley; [1]): 10; Plant response rating, Barley, Spring (spring barley; 62 g ai/ha, scale 0-100): 15; Plant response rating, Barley, Spring (spring barley; 125 g ai/ha, scale 0-100): 25; Plant response rating, Barley, Spring (spring barley; 250 g ai/ha, scale 0-100): 35; Plant response rating, Barley, Winter (winter barley; [1]): 0; Plant response rating, Barley, Winter (winter barley; 62 g ai/ha, scale 0-100): 0; Plant response rating, Barley, Winter (winter barley; 125 g ai/ha, scale 0-100): 15; Plant response rating, Barley, Winter (winter barley; 250 g ai/ha, scale 0-100): 20; Plant response rating, Ryegrass, Italian (Italian ryegrass; [1]): 0; Plant response rating, Ryegrass, Italian (Italian ryegrass; 125 g ai/ha, scale 0-100): 0; Plant response rating, Ryegrass, Italian (Italian ryegrass; 250 g ai/ha, scale 0-100): 30; Plant response rating, Field Violet (field violet; 31 g ai/ha, scale 0-100): 100; Plant response rating, Field Violet (field violet; [2]): 85; Plant response rating, Field Violet (field violet; [3]): 100; Plant response rating, Field Violet (field violet; [4]): 100; Plant response rating, Pigweed (pigweed; 31 g ai/ha, scale 0-100): 100; Plant response rating, Pigweed (pigweed; [2]): 100; Plant response rating, Pigweed (pigweed; [3]): 100; Plant response rating, Pigweed (pigweed; [4]): 100; Plant response rating, Deadnettle (deadnettle; [1]): 35; Plant response rating, Deadnettle (deadnettle; 62 g ai/ha, scale 0-100): 45; Plant response rating, Deadnettle (deadnettle; 125 g ai/ha, scale 0-100): 75; Plant response rating, Deadnettle (deadnettle; 250 g ai/ha, scale 0-100): 100; Plant response rating, Canarygrass (canarygrass; [1]): 30; Plant response rating, Canarygrass (canarygrass; 62 g ai/ha, scale 0-100): 25; Plant response rating, Canarygrass (canarygrass; 125 g ai/ha, scale 0-100): 35; Plant response rating, Canarygrass (canarygrass; 250 g ai/ha, scale 0-100): 60; Plant response rating, Bromegrass, Downy (bromegrass, downy; [1]): 0; Plant response rating, Bromegrass, Downy (bromegrass, downy; 62 g ai/ha, scale 0-100): 0; Plant response rating, Bromegrass, Downy (bromegrass, downy; 125 g ai/ha, scale 0-100): 0; Plant response rating, Bromegrass, Downy (bromegrass, downy; 250 g ai/ha, scale 0-100): 10; Plant response rating, Chickweed (chickweed; 31 g ai/ha, scale 0-100): 80; Plant response rating, Chickweed (chickweed; [2]): 85; Plant response rating, Chickweed (chickweed; [3]): 90; Plant response rating, Chickweed (chickweed; [4]): 100
